Read-outs that look alike come from different tables or passages of the source.
What was measured:
MCF-7 cells = assay: In vitro cytotoxicity, colony formation by crystal violet assay, MCF-7; conditions: for fold less toxic than the next conjugate: EPIF versus DAUNF, DAUNF versus DOXF, both sensitive (MCF-7) and resistant (MCF-7/ADR) breast cancer cells
Method: The term IC50 as used herein refers to the concentration of drug which inhibits cell growth by 50%, i.e., 50% of cells are viable at the IC50 concentration relative to a no-drug control.
Cells were incubated with drug for 3 h in RPMI (Roswell Park Memorial Institute) 1640 media containing 10% fetal bovine serum and 1% DMSO. Plates, were developed using the crystal violet assay. […] In all cases percent survival was determined by the extent of colony formation six days after drug treatment.
All tissue culture materials were obtained from Gibco Life Technologies (Grand Island, N.Y.) unless otherwise stated. MCF-7 breast cancer cells were obtained from American Type Culture Collection (Rockville, Md.). […] Both cell lines were maintained in vitro by serial culture in phenol red-free RPMI Media 1640 supplemented with 10% fetal bovine serum (Gemini Bio-Products, Calbasas, Calif.), L-glutamine (2 mM), HEPES buffer (10 mM), penicillin (100 units/mL), and streptomycin (100 μg/mL). […] Cells were maintained at 37° C. in a humidified atmosphere of 5% CO2 and 95% air.
Cells were dissociated with trypsin-EDTA, counted, and suspended in growth media to a concentration of 5×10^3 cells/mL. Cell suspensions were dispensed in 200 μL aliquots into 96-well tissue culture plates. Plates were then incubated for 24 h at 37° C. in a humidified atmosphere of 5% CO2 and 95% air. The media was replaced with 180 μL of growth media prior to addition of the cytotoxic agents.
Concentrations were then corrected by measuring the solution absorbance at 480 nm (ε=11,500/mole anthracycline). The solutions were then serially diluted in DMSO to give a series of 100× working concentration solutions. For each concentration, the 100× solution was diluted 1:10 in serum-free RPMI Media 1640. 20 μL of the resulting […] solution was immediately added to the appropriate lane. Additionally, one lane was treated with 20 μL of 10% DMSO in serum-free RPMI (no drug) and one lane replaced with 200 μL of 1.5 M Tris buffer (no cells). The cells were incubated at 37° C. for 3 h. The drug solutions were removed and 200 μL of fresh growth media was added to each well.
The extent of colony formation was determined by use of a crystal violet staining assay (Gilles, R. J. et al. (1986), “Determination of cell number in monolayer cultures,” Anal. Biochem. 159:109-113; Reile, H. et al. (1990), “Computerized determination of growth kinetic curves and doubling times from cells in microcultures,” Anal. Biochem. 187:262-267). […] The cells were then stained with 75 μL of 0.1% crystal violet in deionized water for 30 min. […] The plates were blotted dry and 200 μL of 70% ethanol in water was added to each well to solublize the dye. The plates were stored at 4° C. until solubilization was complete (about 4 h). The optical density of each well was measured on an ELISA plate reader at 588 nm. Relative colony sizes were determined by comparison of the drug treated lanes to the control lanes.
MCF-7 breast cancer cells were obtained from American Type Culture Collection (Rockville, Md.). MCF-7/ADR adriamycin resistant breast cancer cells were a gift of Dr. William W. Wells (Michigan State University). Both cell lines were maintained in vitro by serial culture in phenol red-free RPMI Media 1640 supplemented with 10% fetal bovine serum (Gemini Bio-Products, Calbasas, Calif.), L-glutamine (2 mM), HEPES buffer ([…]), penicillin (100 units/mL), and streptomycin (100 μg/mL). […] Cells were maintained at 37° C. in a humidified atmosphere of 5% CO2 and 95% air.
1640 media containing 10% fetal bovine serum. The resulting 90% media/10% DMSO solutions (v/v) were incubated at 37° C. for 6h.

LNCaP = assay: Prostate cancer cell cytotoxicity, crystal violet assay, LNCaP; assay type: cell-based, human; conditions: 3 h drug, 4 days growth
Method: (§1) Toxicity to the three prostate cancer cell lines, LNCaP, DU-145, and PC-3 were measured in two different media, RPMI-1640 and DMEM (Dulbecco's Modified Eagle Medium), both supplemented with 10% fetal bovine serum.
(§2) Cell lines were maintained in vitro in RPMI 1640 media or DMEM, each supplemented with 10% fetal bovine serum, 2 mM L-glutamine, 10 mM HEPES buffer, penicillin (100 units/mL) and streptomycin (100 μg/mL).
(§3) Cells were dissociated with trypsin/EDTA, counted, and suspended in growth media (RPMI or DMEM) to a concentration of 5.6×10^3 cells/mL. Cell suspensions were dispensed in 180 μL aliquots into 96-well tissue culture plates. […] Each 100× solution was diluted 10× in growth media (RPMI or DMEM), and a 20 μL aliquot of the resulting 10× solution was immediately (<10s) added to-the appropriate lane. Additionally, one lane was treated with 20 μL of 10% DMSO in growth media (no drug) and one lane was treated with 200 μL of 1.5 M Tris buffer (no cells). The cells were incubated with the drugs for 3 h at 37° C. The drug solutions were then removed and replaced with 200 μL of fresh media. The cells were incubated for 4 days (7 days for PC-3 cells in DMEM) at 37° C. in a humidified atmosphere of 5% CO2 and 95% air. Cell survival was determined using a crystal violet assay as described earlier (Fenick, D. J. et al (1997) J. Med. Chem. 40: 2452-2461).

DU-145 = assay: Prostate cancer cell cytotoxicity, crystal violet assay, DU-145; assay type: cell-based, human; conditions: 3 h drug, 4 days growth
Method: as §1, §2, §3

[1] = test system: self-complementary DNA octamer (GC)4; assay: Drug-DNA conjugate formation with (GC)4, HPLC; assay type: biochemical; conditions: for DNA reacted to form drug-DNA conjugates: 33 μM (GC)4, 33 μM conjugate, 4% DMSO
Method: The amount of available formaldehyde was 99 μM (3×33 μM). […] The experiment was also run at 25° C. in pH 6.0 phosphate buffer containing 4% DMSO. […] The ratio for conjugate 1 was assumed to be 24:1, based upon the value for conjugate 2. […] Under these circumstances, the conjugate 1 area was estimated based upon its 480 nm absorbance, assuming the 24:1 ratio for A260:A480.
The formation of drug-DNA conjugates at 25° C. was monitored by HPLC (Method II). […] The experiment was also run in pH 6.0 phosphate buffer containing 4% DMSO.

[2] = amorphous material
[3] = Hydrolysis in fetal bovine serum, HPLC; assay type: in vitro ADME; conditions: pH 8.1, in serum at 37° C., read-out: half-life of the equilibrium mixture with intermediate B with respect to formation of intermediates C and D

Compound	fold less toxic than the next conjugate (MCF-7 cells)	IC50 (MCF-7 cells; read-out: IC50 Values, MCF-7, 3 h drug incubation in RPMI 1640, 10% fetal bovine serum, 1% DMSO, colony formation six days after treatment, fresh drug solution) [nM]	times more cytotoxic against the MCF-7 cell line than the parent drug (MCF-7 cells; relative to daunorubicin and doxorubicin, respectively) [times]	fold more toxic to MCF-7 cells than the parent drug (MCF-7 cells; relative to the respective parent drug) [fold]	IC50 (LNCaP; DMEM with 10% fetal bovine serum, read-out: IC50 Values, LNCaP/DMEM (converted)) [nM]	IC50 (LNCaP; RPMI-1640 with 10% fetal bovine serum, read-out: IC50 Values, LNCaP/RPMI-1640 (converted)) [nM]	IC50 (DU-145; DMEM with 10% fetal bovine serum, read-out: IC50 Values, DU-145/DMEM (converted)) [nM]	IC50 (DU-145; RPMI-1640 with 10% fetal bovine serum, read-out: IC50 Values, DU-145/RPMI-1640 (converted)) [nM]	(GC)4 reacted relative to the equivalent amount of daunorubicin and formaldehyde ([1]; 33 μM (GC)4, 55 μM conjugate, pH 7.4, 25° C., after approximately 1 min)	extent of DNA reaction to drug-DNA conjugates ([1]; 317 μM (GC)4, 357 μM conjugate, pH 7.4 phosphate buffer, 25° C., 41 h)	concentration to which the material dissolved instantly in dimethylsulfoxide [2] [µg/mL]	DNA reacted to form drug-DNA conjugates ([1]; pH 6.0 phosphate buffer, 25° C., 5 h) [%]	DNA reacted to form drug-DNA conjugates ([1]; pH 7.3 phosphate buffer, 25° C., 24 h) [%]	DNA that had formed drug-DNA conjugates ([1]; 398 μM (GC)4, 796 μM conjugate, pH 7.3 phosphate buffer, 25° C., 5 h) [%]	half-life at 25 µM [3] [h]
COc1cccc2c1C(=O)c1c(O)c3c(c(O)c1C2=O)C[C@@](O)(C(C)=O)C[C@@H]3O[C@H]1C[C@H]2[C@H](OCN2CN2CO[C@@H]3[C@H](C)O[C@@H](O[C@H]4C[C@](O)(C(C)=O)Cc5c(O)c6c(c(O)c54)C(=O)c4c(OC)cccc4C6=O)C[C@@H]32)[C@H](C)O1 [DAUNF, bis(3′-N-(3′-N,4′-O-methylenedaunorubicinyl))methane]	approximately 7 fold	4	7	7	1.5	3	4	5	four times as much (GC)4	completely reacted	≥ 20000				
COc1cccc2c1C(=O)c1c(O)c3c(c(O)c1C2=O)CC(O)(C(=O)CO)CC3OC1CC2C(OCN3CN2COC2C(C)OC(OC4C[C@](O)(C(=O)CO)Cc5c(O)c6c(c(O)c54)C(=O)c4c(OC)cccc4C6=O)CC23)C(C)O1 (stereo partly shown) [EPIF]	approximately 7 fold											64	68	91	≥ 2
